ChEMBL document CHEMBL5614400, “Emerging therapeutics: The imidazo[1,2-b]pyridazine scaffold as a novel drug candidate for eumycetoma, a neglected tropical disease” (Eur J Med Chem, 2024)
The source made the active and inactive calls. The rule behind the calls is not given here.

How the values were obtained:
Type in all cases: functional, organism-based
Madurella mycetomatis [1] = assay: Antifungal activity against Madurella mycetomatis MM55 at 100 uM by XTT assay
Madurella mycetomatis [2] = assay: Antifungal activity against Madurella mycetomatis MM55 by XTT assay; conditions: Madurella mycetomatis, MM55
Madurella mycetomatis [3] = assay: Antifungal activity against Madurella mycetomatis MM55 at 25 uM by XTT assay

| Compound | Activity (Madurella mycetomatis [1]) | IC50 (Madurella mycetomatis [2]) | Activity (Madurella mycetomatis [3]) |
| --- | --- | --- | --- |
| CN1CCN(c2cc(-c3cccnc3)c3nc(-c4ccc(F)cc4)cn3n2)CC1 | Active | > 16 µM | Active |
| CN1CCN(c2cc(-c3cccnc3)c3nc(-c4ccccc4F)cn3n2)CC1 | Active | 11.5 µM | Active |
| CN1CCN(c2cc(-c3cccnc3)c3nc(-c4cccc(F)c4)cn3n2)CC1 | Active | 11.7 µM | Active |
